Test results from PubChem BioAssay (NCI).
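Interpolation was linear, between the two tested concentrations surrounding the appropriate level; five concentrations were tested over 48 hours in 96-well plates. The concentration for full growth arrest is given as TGI.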

Tests used:
Assay in all cases: growth of human tumour cells (NCI), 48 h
[1] = system: KM20L2 colon
[2] = system: NCI-H226 lung
[3] = system: SR leukemia
[4] = system: MALME-3M melanoma
[5] = system: SN12C renal
[6] = system: U251 CNS
[7] = system: NCI-H460 lung
[8] = system: HCT-116 colon
[9] = system: SF-295 CNS
[10] = system: CCRF-CEM leukemia
[11] = system: SNB-19 CNS
[12] = system: UO-31 renal
[13] = system: 786-0 renal
[14] = system: HL-60(TB) leukemia
[15] = system: TK-10 renal
[16] = system: KM12 colon
[17] = system: LXFL 529 NSCLC
[18] = system: K-562 leukemia
[19] = system: UACC-62 melanoma
[20] = system: DLD-1 colon
[21] = system: SW-620 colon
[22] = system: HCC-2998 colon
[23] = system: HT29 colon
[24] = system: EKVX NSCLC
[25] = system: SF-268 CNS
[26] = system: NCI-H522 lung
[27] = system: M14 melanoma
[28] = system: HOP-62 NSCLC
[29] = system: DMS 114 small cell lung
[30] = system: A549 NSCLC
[31] = system: SK-MEL-2 melanoma
[32] = system: NCI-H23 lung
[33] = system: UACC-257 melanoma
[34] = system: COLO 205 colon
[35] = system: DMS 273 small cell lung
[36] = system: MOLT-4 leukemia
[37] = system: RXF 393 renal
[38] = system: HOP-92 NSCLC
[39] = system: SK-OV-3 ovarian
[40] = system: XF 498 CNS
[41] = system: SK-MEL-28 melanoma
[42] = system: ACHN renal
[43] = system: SNB-78 CNS
[44] = system: LOX IMVI melanoma
[45] = system: OVCAR-3 ovarian
[46] = system: RPMI-8226 leukemia
[47] = system: SNB-75 CNS
[48] = system: SF-539 CNS
[49] = system: IGROV1 ovarian
[50] = system: HOP-18 NSCLC
[51] = system: OVCAR-8 ovarian
[52] = system: OVCAR-4 ovarian
[53] = system: SK-MEL-5 melanoma
[54] = system: HCT-15 colon
[55] = system: OVCAR-5 ovarian
[56] = system: CAKI-1 renal
[57] = system: MDA-N
[58] = system: MDA-MB-231 breast
[59] = system: T-47D breast
[60] = system: A498 renal
[61] = system: NCI/ADR-RES ovarian
[62] = system: MCF7 breast
[63] = system: HS 578T breast
[64] = system: PC-3 prostate
[65] = system: M19-MEL melanoma
[66] = system: DU-145 prostate
[67] = system: MDA-MB-435

## Cn1cc(NC(=O)[C@H]2CCC(N)=N2)cc1C(=O)NCCC(=N)N
[1]
  TGI: > 100 µM
[2]
  TGI: > 100 µM
[3]
  TGI: > 100 µM
[4]
  TGI: > 100 µM
[5]
  TGI: > 100 µM
[6]
  TGI: > 100 µM
[7]
  TGI: > 100 µM
[8]
  TGI: > 100 µM
[9]
  TGI: > 100 µM
[10]
  TGI: > 100 µM
[11]
  TGI: > 100 µM
[12]
  TGI: > 100 µM
[13]
  TGI: > 100 µM
[14]
  TGI: > 100 µM
[15]
  TGI: > 100 µM
[16]
  TGI: > 100 µM
[17]
  TGI: > 100 µM
[18]
  TGI: > 100 µM
[19]
  TGI: > 100 µM
[20]
  TGI: > 100 µM
[21]
  TGI: > 100 µM
[22]
  TGI: > 100 µM
[23]
  TGI: > 100 µM
[24]
  TGI: > 100 µM
[25]
  TGI: > 100 µM
[26]
  TGI: > 100 µM
[27]
  TGI: > 100 µM
[28]
  TGI: > 100 µM
[29]
  TGI: > 100 µM
[30]
  TGI: > 100 µM
[31]
  TGI: > 100 µM
[32]
  TGI: > 100 µM
[33]
  TGI: > 100 µM
[34]
  TGI: > 100 µM
[35]
  TGI: > 100 µM
[36]
  TGI: > 100 µM
[37]
  TGI: > 100 µM
[38]
  TGI: > 100 µM
[39]
  TGI: > 100 µM
[40]
  TGI: > 100 µM
[41]
  TGI: > 100 µM
[42]
  TGI: > 100 µM
[43]
  TGI: > 100 µM
[44]
  TGI: > 100 µM
[45]
  TGI: > 100 µM
[46]
  TGI: > 100 µM
[47]
  TGI: > 100 µM
[48]
  TGI: > 100 µM
[49]
  TGI: > 100 µM
[50]
  TGI: > 100 µM
[51]
  TGI: > 100 µM

## O=C(CC1(O)C(=O)Nc2c(Cl)cc(Cl)cc21)c1ccco1 (stereo unspecified)
[1]
  TGI: > 100 µM
[2]
  TGI: 71.4 µM
[4]
  TGI: > 100 µM
[5]
  TGI: > 100 µM
[6]
  TGI: > 100 µM
[52]
  TGI: 40.8 µM
[7]
  TGI: > 100 µM
[9]
  TGI: > 100 µM
[10]
  TGI: 68.4 µM
[11]
  TGI: > 100 µM
[12]
  TGI: > 100 µM
[13]
  TGI: > 100 µM
[14]
  TGI: 47.5 µM
[15]
  TGI: > 100 µM
[16]
  TGI: > 100 µM
[17]
  TGI: > 100 µM
[18]
  TGI: > 100 µM
[20]
  TGI: > 100 µM
[21]
  TGI: > 100 µM
[22]
  TGI: > 100 µM
[23]
  TGI: > 100 µM
[24]
  TGI: > 100 µM
[25]
  TGI: > 100 µM
[26]
  TGI: > 100 µM
[27]
  TGI: > 100 µM
[28]
  TGI: > 100 µM
[53]
  TGI: > 100 µM
[29]
  TGI: 60 µM
[54]
  TGI: > 100 µM
[30]
  TGI: > 100 µM
[31]
  TGI: > 100 µM
[32]
  TGI: > 100 µM
[33]
  TGI: > 100 µM
[55]
  TGI: > 100 µM
[34]
  TGI: > 100 µM
[56]
  TGI: > 100 µM
[35]
  TGI: > 100 µM
[36]
  TGI: 59.1 µM
[37]
  TGI: > 100 µM
[38]
  TGI: > 100 µM
[39]
  TGI: > 100 µM
[40]
  TGI: 67.8 µM
[41]
  TGI: > 100 µM
[42]
  TGI: > 100 µM
[43]
  TGI: 99.5 µM
[44]
  TGI: > 100 µM
[45]
  TGI: 57 µM
[46]
  TGI: 60.4 µM
[47]
  TGI: > 100 µM
[50]
  TGI: > 100 µM
[51]
  TGI: > 100 µM

## O=Cc1cc2c(s1)C(=O)c1sccc1C2=O
[1]
  TGI: 4.16 µM
[2]
  TGI: 3.53 µM
[3]
  TGI: 5.45 µM
[4]
  TGI: 0.664 µM
[5]
  TGI: 0.688 µM
[6]
  TGI: 0.748 µM
[52]
  TGI: 0.599 µM
[57]
  TGI: 0.0932 µM
[58]
  TGI: 2.2 µM
[7]
  TGI: 2.69 µM
[8]
  TGI: 0.598 µM
[9]
  TGI: 0.314 µM
[59]
  TGI: 4.38 µM
[11]
  TGI: 0.668 µM
[12]
  TGI: 0.861 µM
[13]
  TGI: 2.42 µM
[14]
  TGI: 5.41 µM
[15]
  TGI: 4.14 µM
[16]
  TGI: 7.88 µM
[17]
  TGI: 0.38 µM
[18]
  TGI: > 17 µM
[19]
  TGI: 0.532 µM
[20]
  TGI: 1.07 µM
[21]
  TGI: 0.592 µM
[22]
  TGI: 3.1 µM
[23]
  TGI: 3.69 µM
[24]
  TGI: 3.18 µM
[25]
  TGI: 0.526 µM
[26]
  TGI: 2.02 µM
[27]
  TGI: 0.146 µM
[28]
  TGI: 3.27 µM
[53]
  TGI: 0.255 µM
[29]
  TGI: 0.372 µM
[60]
  TGI: 2.66 µM
[54]
  TGI: 0.715 µM
[30]
  TGI: 1.56 µM
[31]
  TGI: 0.37 µM
[32]
  TGI: 0.441 µM
[33]
  TGI: 0.657 µM
[61]
  TGI: 0.409 µM
[62]
  TGI: 1.33 µM
[55]
  TGI: 2 µM
[34]
  TGI: 5.15 µM
[56]
  TGI: 3.15 µM
[35]
  TGI: 0.308 µM
[36]
  TGI: 9.49 µM
[37]
  TGI: 0.663 µM
[38]
  TGI: 2.82 µM
[39]
  TGI: 5.48 µM
[63]
  TGI: 0.427 µM
[40]
  TGI: 2.54 µM
[41]
  TGI: 0.334 µM
[42]
  TGI: 1.77 µM
[44]
  TGI: 0.155 µM
[45]
  TGI: 0.463 µM
[64]
  TGI: 6.29 µM
[65]
  TGI: 0.0709 µM
[47]
  TGI: 0.338 µM
[48]
  TGI: 0.399 µM
[49]
  TGI: 2.9 µM
[50]
  TGI: 0.322 µM
[66]
  TGI: 0.319 µM
[51]
  TGI: 0.771 µM
[67]
  TGI: 0.0334 µM
